Laboratory results as given in US7795241B2, “Derivative prodrugs of ethinyl estradiol” (Warner Chilcott Company, LLC, priority 2005, dated 2010).

Legend:
[1] = Stability at 40° C./75% RH, prodrug assayed for degradation to ethinyl estradiol (HPLC); type: physicochemical; conditions: prodrug remaining; for Assay T = 2 W: 2 weeks; for Assay T = 0: T = 0 months; for Assay T = 1 M: 1 month; for Assay T = 6 M: 6 months
Experimental: Solubility was performed in water. […] The time-points for stability were T=0 months, T=2 weeks, T=1 month, T=3 months and T=6 months.
The following outlines the conditions utilized for analysis of this prodrug. Analysis was conducted using High-Performance Liquid Chromatography (HPLC).
The following outlines the conditions utilized for analysis of this prodrug. Analysis was conducted using HPLC.
The following outlines the conditions utilized for analysis of the prodrug. Analysis was conducted using HPLC.

[2] = Hydrolysis to the parent drug ethinyl estradiol (0.5N NaOH, HPLC quantification); type: physicochemical; conditions: 5 min, prodrug solution + water + 0.5N NaOH
Experimental: Hydrolysis studies refer to the rate of hydrolysis to the parent drug, ethinyl estradiol. Hydrolysis was conducted in the following manner: • (1) 1 mL of a solution containing the prodrug, 2.8 mL of water and 0.1 mL of 0.5N NaOH were combined; • (2) the resulting solution was vortexed for 10 seconds; • (3) the mixture was then left to stand for specific time intervals (e.g., 5 minutes, 15 minutes, etc.); • (4) the mixture was then neutralized with 0.1 mL of a buffer; and • (5) the solutions were finally injected to quantify the disappearance of the prodrug and the formation of the parent compound.

[3] = listed as ethinyl estradiol acetoxy acetate
[4] = listed as ethinyl estradiol lactate acetate

Assay T = 0 [1]	Assay T = 3 M ([1]; 3 months)	Assay T = 6 M [1]	Assay T = 6 M [1, 4]	Hydrolysis (to ethinyl estradiol) [2, 4]	Compound	Assay T = 2 W [1]	Assay T = 1 M [1]	Assay T = 1 M [1, 3]	Hydrolysis (to ethinyl estradiol) [2]	Hydrolysis (to ethinyl estradiol) [2, 3]
97.2%	–	–	–	–	C#CC1(O)CC[C@H]2[C@@H]3CCc4cc(OC(=O)[C@@H]5CCCN5C(C)=O)ccc4[C@H]3CC[C@@]21C (stereo partly drawn) [Ethinyl Estradiol N-Acetyl Prolinate, ethinyl estradiol N-acetyl proline]	96.6%	–	–	–	–
94.43%	95.91%	95.89%	95.9%	100%	ethinyl estradiol lactate-acetate	–	93.67%	–	100% (5 min)	–

Compound	Assay T = 0 [1]	Assay T = 3 M ([1]; 3 months)	Assay T = 6 M [1]	Assay T = 6 M [1, 4]	Hydrolysis (to ethinyl estradiol) [2, 4]	Assay T = 2 W [1]	Assay T = 1 M [1]	Assay T = 1 M [1, 3]	Hydrolysis (to ethinyl estradiol) [2]	Hydrolysis (to ethinyl estradiol) [2, 3]
ethinyl estradiol acetoxy acetate	97.8%	–	–	–	–	97.2%	97.0%	97%	100% (5 min)	100%
